Measurements as given in ChEMBL document CHEMBL1201862, “PubChem BioAssay data set” (2004).
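A five-concentration, 48-hour dose response in 96-well plates underlies each endpoint, interpolated linearly between surrounding concentrations. GI50 = concentration required for 50% inhibition of growth.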 The source made the active and inactive calls. Rule as the data show it: active = GI50 up to about 1.1 µM and inactive = higher.

Columns and labels:
Test in all cases: DTP human tumour cell line panel, 48 h
[1] = test system: SN12C
[2] = test system: NCI-H226
[3] = test system: NCI-H522
[4] = test system: UACC-62
[5] = test system: SNB-19
[6] = test system: NCI-H23
[7] = test system: SF-295
[8] = test system: SK-MEL-2
[9] = test system: SF-539
[10] = test system: CCRF-CEM
[11] = test system: K562
[12] = test system: SW-620
[13] = test system: OVCAR-8
[14] = test system: NCI/ADR-RES
[15] = test system: MOLT-4
[16] = test system: CAKI-1
[17] = test system: SNB-75
[18] = test system: HCC 2998
[19] = test system: SK-MEL-28
[20] = test system: LOX IMVI

Measured: GI50

CC(C)NC(=O)OCc1c(COC(=O)NC(C)C)c(-c2cc[n+](COC(=O)Cc3ccccc3)cc2)n2c1CCC2
inactive: [1] > 100 µM | [2] > 100 µM | [3] > 100 µM | [4] 56.2 µM | [5] > 100 µM | [6] 56.6 µM | [7] 92 µM | [8] > 100 µM | [9] > 100 µM | [10] 38.5 µM | [11] > 100 µM | [12] > 100 µM | [13] > 100 µM | [14] > 100 µM | [15] 47.8 µM | [16] 37.8 µM | [17] 54.6 µM | [18] > 100 µM | [19] > 100 µM | [20] > 100 µM

C=C1C(=O)C[C@@]23CCC[C@@]12CC(O)C3 (stereo not given in full)
inactive: [1] 16.9 µM | [2] 21.2 µM | [3] 2.37 µM | [4] 13.6 µM | [5] 85.7 µM | [6] 21.8 µM | [7] 37.8 µM | [8] 24.6 µM | [9] 25.6 µM | [10] 10.3 µM | [11] 24.5 µM | [12] 18.7 µM | [13] 32.7 µM | [14] 13.4 µM | [15] 23.4 µM | [16] > 10 µM | [17] 18.4 µM | [18] > 46.2 µM | [19] 21.5 µM | [20] 14.6 µM
